According to US20020048572A1, “Treatment of hypertriglyceridemia and other conditions using LXR modulators” (priority 2000, published 2002):

Key:
[1] = tested on: HepG2 cells and mice; experiment: Gene expression microarrays (GEM) of LXR agonist-treated HepG2 cells and mice; assay type: in vivo, mouse; conditions: fold increase vs control; mice 5 mg/kg p.o. 7 d
Procedure: Total RNA extraction and purification for Northern blot analysis was accomplished using the TRI reagent (Molecular Research Center).
To understand the mechanism whereby LXR agonist increased plasma triglycerides, changes in global gene expression in response to LXR agonist treatment were assessed by gene expression micrarrays (GEM) and Northern blot analysis. The GEM experiments were carried out using RNA derived from control and LXR agonist-treated HepG2 cells and mice. […] In addition, a prominent subset of >20 fatty acid metabolism-associated genes was increased by LXR agonist. This subset included fatty acid synthase, carnitine palmitoyltransferase 1, acyl-CoA-binding protein, acyl glycerol-3 phosphate acyltransferase, fatty acid amide hydrolase, acyl carrier protein, fatty acid binding and transport proteins, and colipase, a small protein cofactor required by lipase for the efficient hydrolysis of dietary lipid. Up-regulation of liver and intestinal phosphoethanolamine cytidylyltransferase, a key regulatory enzyme in the CDP-ethanolamine pathway for phosphatidylethanolamine synthesis, was also noted.

[2] = tested on: mouse liver mRNA; experiment: Northern blot analysis of hepatic gene expression in treated mice; assay type: in vivo
Procedure: FIG. 9. Northern blot analysis. Total RNA was isolated from the tissues indicated from mice (A,B,C) and hamsters (D). The numerical data shown with each figure represents the fold increase (+) or decrease (-) of expression relative to corresponding vehicle-treated controls. (E) HepG2 cells were incubated in culture media with or without cycloheximide (cyclohex). Total RNA extraction and purification for Northern blot analysis was accomplished using the TRI reagent (Molecular Research Center). […] Mouse gene expression was assessed by Northern blot analysis using random primed, ^32P-labeled, cDNA probes that were generated using the primers described in FIG. 11. Hybridization signals were quantified using a phosphoimager (Molecular Dynamics) and standardized against GAPDH controls. Mouse cDNA probes for the numerous genes analyzed were prepared using primers from mouse liver or intestinal cDNA as template. The SREBP-2 cDNA was a gift from J. D. Horton (University of Texas Southwestern Medical Center, Dallas); mouse and hamster CYP7[…]. W. Russell (University of Texas Southwestern Medical Center, Dallas). SCD-1 was a gift from J. Ntambi (University of Wisconsin, Madison), and apoD was kindly provided by […] (University of Quebec, Montreal).

[3] = tested on: wild-type mice; experiment: Plasma and hepatic lipid analysis in wild-type mice; assay type: in vivo, mouse; conditions: 7 d
Procedure: FIG. 10. Agonist T0901317-mediated increases in hepatic and plasma triglyceride levels and lipogenic mRNA requires LXRs. Analysis of the lipid content of livers and plasma from vehicle- and T0901317-created wild-type and LXRα/β-/- mice (n=5 for each of the four groups shown, treatment for 7 d). Pooled plasma (50 μL from each of five mice per group) was fractionated and lipids analyzed as described. Shown are the concentrations for (A) FPLC triglyceride, (B) FPLC phospholipid, and (C) hepatic triglyceride. (D) Northern blot analysis of hepatic SREEP-I, SREBP-2, SCD-1, FAS, and ACC mRNA levels.
C57BL/6 mice (Charles River Laboratories) were between 6 and 10 wk old and weighed ˜20-30 g at the initiation of treatment. Golden Syrian Hamsters (Harlan Sprague-Dawley) were between 12 and 16 wk old (80-150 g). Animals were fed regular chow diets containing ˜4% fat and 0.02% cholesterol (PMI Pi-colab 5053 Chow). LXRα and β−/− mice were reared at the University of Texas Southwestern (UTSW) Medical Center at Dallas in accordance with the Institutional Animal Care and Research Advisory Committee at the UTSW Medical Center. Mice at UTSW were maintained on a 12 h light/12 h dark cycle and fed ad libitum a cereal-based mouse chow diet (No. 7001, Harlan Teklad).
Plasma was prepared from euthanized mice using standard centrifugation techniques and analyzed for plasma total cholesterol, HDL cholesterol, and triglyceride concentrations using a Hitachi 704 Clinical Analyzer. FPLC of plasma lipoproteins was accomplished using 200 μL aliquots of pooled plasma (from three to five animals) and fractionated on Superose 6 columns (Pharmacia). Cholesterol, triglyceride, and phospholipid concentrations in the fractions were determined enzymatically with reagents from Boehringer, Sigma, and Wako, respectively. Hepatic lipids were extracted and analyzed for triglyceride essentially as described (Bucolo, G. and David, H., Clin. Chem. 19:476-482 (1973); Yokode et al., Science 250:1273-1275 (1990)).

SMILES: O=S(=O)(c1ccccc1)N(CC(F)(F)F)c1ccc(C(O)(C(F)(F)F)C(F)(F)F)cc1 [T0901317, N-(2,2,2-trifluoro-ethyl)-N-[4-(2,2,2-trifluoro-1-hydroxy-1-trifluoromethyl-ethyl)-phenyl]-benzenesulfonamide]
- SREBP-1 expression (GEM) [1]: twofold
- fatty acid synthase expression (GEM) [1]: twofold
- apoAI, apoAII, apoD, apoE, MTP and NaTCP gene expression [2]: remained unaffected
- steady-state mRNA levels of CYP7A1, SCD-1, and SREBP-1 [2]: increased in a dose-dependent manner
- transcript level of 3-hydroxy-3-methylglutaryl coenzyme A synthase (HMG CoA S) [2]: consistently reduced
- transcript level of squalene synthase (SQS) [2]: consistently reduced
- SR-BI, apoCIII and DCAT transcript levels ([2]; data not shown): did not appear to vary in level
- hepatic ACC gene activity (Northern blot) ([2]; fold increase vs vehicle): twofold
- hepatic FAS gene activity (Northern blot) ([2]; fold increase vs vehicle): threefold
- hepatic SCD-1 gene activity (Northern blot) ([2]; fold increase vs vehicle): up to ninefold
- plasma VLDL-triglyceride (FPLC) ([3]; wild type mice, fold increase): threefold
- total plasma triglycerides ([3]; wild-type mice): 225.7 ± 7 mg/dL
- hepatic triglyceride ([3]; wild-type mice, fold vs vehicle-treated controls): fivefold
